Measured values published in PubChem BioAssay AID1996.
Values after ≈ are worked out from the molar mass of the structure shown.

Settings: buffer; pH 7.4; 200.0 µM

| SMILES | solubility kinetic [mg/mL] |
| --- | --- |
| C=CCn1c(-c2ccccc2)nc(=S)c2c1CCCC2 | > 0.0424 |
| Cn1cc(C=C2C(=O)NC(=O)NC2=O)c2ccccc21 | 0.0026 (≈ 9.66 µM) |
| CCOC(=O)Cc1csc(NC(=O)CN2CCOCC2)n1 | 0.0401 (≈ 128 µM) |
| CC(C)C(NC(=O)c1ccc(Cl)cc1Cl)C(=O)N1CCN(S(=O)(=O)c2ccccc2)CC1 (configuration not stated) | 0.002 (≈ 4.01 µM) |
| CC1=CC=CC2=NC(=O)CC(C)(C(=O)O)N12 (configuration not stated) | > 0.033 |
| COc1cccc(N2CN(CCc3ccccc3)CNC2=S)c1 | 0.0098 (≈ 29.9 µM) |
| CC1CN(C(=S)Nc2cccc([N+](=O)[O-])c2)CC(C)O1 (configuration not stated) | > 0.0443 |
| Cc1ccc(NC(=O)NCc2nc3ccccc3n2C)cc1 | 0.0348 (≈ 118 µM) |
| O=C(Nc1ccc2c(c1)OCCO2)c1cccnc1Oc1ccccc1 | 0.004 (≈ 11.5 µM) |
| CC1(C(=O)NC2CCCCC2)CCC(=O)N1Cc1ccc2c(c1)OCO2 (configuration not stated) | 0.0444 (≈ 124 µM) |
| COc1ccccc1N1CCN(CC(=O)c2c[nH]c3ccccc23)CC1 | 0.0066 (≈ 18.9 µM) |
| CC(NCc1ccc(F)cc1)C(=O)NC1CCCCC1.O=C(O)C(=O)O (configuration not stated) | > 0.0553 |
| CCOc1ccc(/C=C2\SC(=S)N(C(C(=O)O)c3ccccc3)C2=O)cc1OC (configuration not stated) | > 0.0644 |
| COc1ccnc2c1c(=O)n(Cc1ccc(Cl)cc1)c(=O)n2C | 0.0093 (≈ 28 µM) |
| CCn1c(=O)c2c(nc3n2CCCN3c2cccc(C)c2)n(C)c1=O | 0.0483 (≈ 142 µM) |
| Cc1ccc(N2CN(CCC3=CCCCC3)CNC2=S)cc1 | 0.0051 (≈ 16.2 µM) |
| COC(=O)c1cc(OC(=O)c2ccc(=O)[nH]c2)cc(C(=O)OC)c1 | 0.0126 (≈ 38 µM) |
| CC1=C(C)C(=O)N(C(C)CCc2ccccc2)C1=O (configuration not stated) | 0.0044 (≈ 17.1 µM) |
| O=C(O)c1c2c(nc3ccccc13)/C(=C/c1ccc(O)cc1)CCC2 | > 0.0497 |
| CCOC(=O)Cc1cnc(NC(=O)CSc2nc(N)cc(=O)[nH]2)s1 | 0.0126 (≈ 34.1 µM) |
| Fc1cc(Br)cc(F)c1NC(=S)N1CCOCC1 | 0.0338 (≈ 100 µM) |
| O=C(c1ccccc1)c1nc2c(n1O)CCCCC2 | > 0.0384 |
| CCOC(=O)C1CN(S(=O)(=O)c2cc(OC)ccc2OC)C1 | 0.0488 (≈ 148 µM) |
| Cc1cccc(C(=O)NCC(=O)OCC(=O)N2CCCCC2)c1 | 0.046 (≈ 144 µM) |

| SMILES | solubility kinetic [mg/mL] |
| --- | --- |
| Cc1cccc(C)c1OCC(O)CN1CCc2ccccc2C1.Cl (configuration not stated) | > 0.0522 |
| Cc1cc(C)cc(NC(=O)c2ccc3c(c2)CCN3S(C)(=O)=O)c1 | 0.0005 (≈ 1.45 µM) |
| CCc1c(C)c2cc(Cl)c(O)c(CN3CCCC3)c2oc1=O | 0.0305 (≈ 94.8 µM) |
| O=C1CN(c2ccccc2)C(=O)N1 | > 0.0264 |
| COCc1nc2oc3ccc(C)cc3c(=O)c2cc1C(=O)OC | 0.0039 (≈ 12.4 µM) |
| O=C(Nc1ccc(Cl)c(Cl)c1)c1ccccc1NC(=O)C1CC=CCC1C(=O)O (configuration not stated) | > 0.065 |
| Cc1ccc(NC(=O)c2noc3c2CCC3)cc1C | 0.0047 (≈ 18.3 µM) |
| Cc1cc(=O)oc2cc(Oc3ncccc3[N+](=O)[O-])ccc12 | 0.002 (≈ 6.71 µM) |
| CCCc1ccc(S(=O)(=O)NCC2CCCN2CC)cc1 (configuration not stated) | 0.031 (≈ 99.9 µM) |
| CCOC(=O)c1cc(Sc2ccccc2N)cc(C(=O)OCC)n1 | < 0.0004 |
| COC(=O)Cc1ccc(NC(=S)N2CCCCC2C)cc1 (configuration not stated) | > 0.046 |
| Cn1ncc([N+](=O)[O-])c1C(=O)NC1CCCCC1 | > 0.0378 |
| OC(C#CCCN1CCCCC1)(c1ccccc1)c1ccccc1 | 0.0377 (≈ 118 µM) |
| CCOC(=O)N1CCC(NC(=O)c2ccc(Cl)cc2)CC1 | > 0.0466 |
| CN(C)CC1CCCCC1=O.Cl (configuration not stated) | > 0.0288 |
| CCOC(=O)c1cccc(N2C(=O)C3C4C=CC(CC4)C3C2=O)c1 (configuration not stated) | 0.0037 (≈ 11.4 µM) |
| CC(CCc1ccccc1)NCC(O)COc1ccccc1 (configuration not stated) | 0.0431 (≈ 144 µM) |
| CC(C)C(=O)N1CCC(Cc2ccccc2)CC1 | 0.0335 (≈ 137 µM) |
| Cc1onc(-c2ccccc2)c1C(=O)N1CCN(c2ccccn2)CC1 | > 0.0523 |
| Fc1cccc(F)c1-c1nc(-c2ccncc2)no1 | 0.0147 (≈ 56.7 µM) |
| O=C(Nc1ccccc1)Nc1nc2ccccc2s1 | < 0.0002 |
| CSC1=C(C#N)C(c2sccc2C)CC(=O)N1 (configuration not stated) | > 0.0397 |
| CCOC(=O)c1sc(=NC(=O)c2ccc(Cl)s2)n(C)c1C | 0.0005 (≈ 1.45 µM) |
| CN(C)C(=S)SCC(=O)NC(=O)NC(C)(C)C | 0.0394 (≈ 142 µM) |

| SMILES | solubility kinetic [mg/mL] |
| --- | --- |
| COc1cc(C)c(CN2CC=C(c3ccc(F)cc3)CC2)cc1C | 0.0085 (≈ 26.1 µM) |
| CCOC(=O)CC(NC(=O)c1ccccc1)c1ccc(OC)cc1 (configuration not stated) | 0.0364 (≈ 111 µM) |
| CCN(CCS(=O)(=O)c1ccc(Br)cc1)Cc1nc2ccccc2c(=O)[nH]1 | 0.0093 (≈ 20.7 µM) |
| CC1CCN(S(=O)(=O)c2ccc(Cl)s2)CC1 | 0.0153 (≈ 54.7 µM) |
| C#CCOc1ccc(/C=C2/C(=O)ON=C2C)cc1Cl | 0.0329 (≈ 119 µM) |
| CC(=O)NS(=O)(=O)c1ccc(NC(=O)CSc2ccccc2)cc1 | 0.0425 (≈ 117 µM) |
| CN(c1ccccc1)S(=O)(=O)c1ccc(C(=O)N2CCN(c3ccccc3Cl)CC2)cc1 | 0.0068 (≈ 14.5 µM) |
| CCCNC(=O)NC(=O)CN1CCCC1c1ccc2c(c1)OCCO2 (configuration not stated) | > 0.0521 |
| O=C(C1CCC1)N1CCN(c2cccc(C(F)(F)F)c2)CC1 | 0.0388 (≈ 124 µM) |
| CCNC(=O)C(=O)c1c(-c2ccccc2)[nH]c2ccccc12 | > 0.0439 |
| O=C(COC(=O)c1cc(Br)ccc1O)NC12CC3CC(CC(C3)C1)C2 | 0.0031 (≈ 7.59 µM) |
| O=C(NCCc1ccccc1)c1cnc2n(c1=O)CCS2 | 0.045 (≈ 149 µM) |
| O=S(=O)(NC1=NCCC1)c1ccc(F)cc1F | > 0.039 |
| COc1ccc(NS(=O)(=O)c2cccc(C(=O)OCC(=O)c3c(N)n(C)c(=O)n(C)c3=O)c2)cc1 | 0.0164 (≈ 32.6 µM) |
| CN(C(=O)Nc1cnc2ccccc2c1)c1ccccc1 | > 0.0416 |
| COc1cc2c(C#N)c(N3CCc4ccccc4C3)nc(N)c2c(N)n1 | 0.0016 (≈ 4.62 µM) |
| NC(=O)C1CCN(C(=O)/C(=C/c2ccccc2)NC(=O)c2ccccc2)CC1 | 0.0537 (≈ 142 µM) |
| CCOc1ccc(Cc2c(C)[nH]c3ccc(C(=O)O)cc3c2=S)cc1 | 0.0362 (≈ 102 µM) |
| CCOc1ccc(Nc2nc(-c3cccnc3)cs2)cc1 | < 0.0002 |
| CC(Oc1ccc2c(-c3ccccc3)cc(=O)oc2c1)C(=O)N1CCOCC1 (configuration not stated) | > 0.0569 |
| CCCCCCCCCCCCN1C(=O)CSC1c1cccnc1 (configuration not stated) | < 0.0004 |
| Nc1ncnc2nc(SCC(=O)Nc3ccccc3F)[nH]c12 | 0.0298 (≈ 93.6 µM) |
| Cc1ccc(S(=O)(=O)NCC[C@@]2(C)C3CCC2(C)C(=O)C3)cc1 (some centres not stated) | > 0.0503 |
| O=C(NCCc1cccs1)C(c1ccccc1)c1ccccc1 | 0.0015 (≈ 4.67 µM) |

| SMILES | solubility kinetic [mg/mL] |
| --- | --- |
| O=C(Nc1cccc(Cl)c1)NC1CCS(=O)(=O)C1 (configuration not stated) | 0.0364 (≈ 126 µM) |
| OCCSc1nc(N2CCOCC2)nc(N2CCOCC2)n1 | > 0.0491 |
| C[C@@H](NCCc1ccc(O)cc1)[C@@H](O)c1ccc(O)cc1.Cl | > 0.0486 |
| O=C(N/C(=C\c1ccco1)C(=O)N1CCC(O)CC1)c1ccccc1 | 0.0411 (≈ 121 µM) |
| Cc1cc(N2CCN(C(=O)/C=C/C(=O)O)CC2)c2ccccc2n1 | 0.0486 (≈ 149 µM) |
| CN(CC(=O)NCc1ccc2c(c1)OCO2)S(=O)(=O)c1ccc(Cl)cc1 | 0.0086 (≈ 21.7 µM) |
| Cc1cccc(C(=O)Nc2ccc(Oc3cnccn3)cc2)c1 | 0.0056 (≈ 18.3 µM) |
| CCC1CCCCN1S(=O)(=O)c1ccc([N+](=O)[O-])cc1 (configuration not stated) | 0.0343 (≈ 115 µM) |
| CCOC(=O)N1CCC(N2CCN(c3ccccc3)CC2)CC1.Cl | 0.0511 |
| CCOC(=O)C1=C(C)NC(SC)=C(C#N)C1CC(C)C (configuration not stated) | 0.0023 (≈ 7.81 µM) |
| O=c1cc(OCc2ccccc2)cc[nH]1 | > 0.0302 |
| CC(C)c1ccc(NC(=O)c2ccccc2NC(=O)C2CCCCC2C(=O)O)cc1 (configuration not stated) | 0.0553 (≈ 135 µM) |
| Cc1ccc(C(=O)NCCN2CCOCC2)cc1[N+](=O)[O-] | > 0.044 |
| O=C(CN1C(=O)C(=O)N(C2CCCC2)C1=O)NCCc1ccc(F)cc1 | > 0.0542 |
| C=CCN1C(=O)C(=O)N(Cc2nc3ccccc3s2)C1=O | > 0.0452 |
| COc1ccc(Nc2c3c(nc4ccc(C)cc24)CCC3)cc1.Cl | 0.0366 |
| O=[N+]([O-])c1ccccc1/C=C/c1ccc2ccccc2n1 | < 0.0003 |
| COc1ccc(OCC(=O)Nc2ccc3c(c2)OCO3)cc1 | 0.0423 (≈ 140 µM) |
| CC(NC(=O)COc1ccccc1)C(=O)NCc1ccc(S(N)(=O)=O)cc1 (configuration not stated) | > 0.0587 |
| O=C(COC(=O)Cn1cnc2ccccc2c1=O)Nc1ccccc1OC(F)F | 0.0158 (≈ 39.2 µM) |
| Cc1ccc(NC(=O)COC(=O)c2cccc(C)c2[N+](=O)[O-])cc1S(=O)(=O)N1CCCCC1 | 0.0038 (≈ 7.99 µM) |
| C=CCNC(=O)c1ccc(S(=O)(=O)CC)c(Cl)c1Cl | > 0.0483 |
| CNC(=S)N1CCn2cccc2C1c1ccc(F)cc1 (configuration not stated) | 0.0408 (≈ 141 µM) |
| Fc1ccc(NC(=S)Nc2cccnc2)c(F)c1F | > 0.0425 |

| SMILES | solubility kinetic [mg/mL] |
| --- | --- |
| Cc1noc(C)c1NC(=O)N1CCN(Cc2ccccc2)CC1 | > 0.0472 |
| CCCOc1ccc(C(=O)Nc2ccc3c(c2)OCO3)cc1 | 0.001 (≈ 3.34 µM) |
| CCOc1ccccc1N1CCN(C(=O)NCc2ccc(C)cc2)CC1 | > 0.053 |
| Cc1ccc(NC(=O)NCc2cccn2C)cc1C | 0.0022 (≈ 8.55 µM) |
| CNC(=O)CCN(Cc1ccco1)S(=O)(=O)c1ccc(OC)c(OC)c1 | 0.0562 (≈ 147 µM) |
| CN(C)CCCn1c(N)c(C#N)c2nc3ccccc3nc21 | > 0.0442 |
| O=C(Nc1ccccc1O)N1c2ccccc2Sc2ccccc21 | < 0.0004 |
| Cc1nc2ccccn2c1-c1ccnc(SCc2ccc(Cl)cc2)n1 | < 0.0002 |
| CC1CN(C(=S)Nc2ccc(F)cc2F)CC(C)O1 (configuration not stated) | > 0.043 |
| Cc1noc(C)c1COc1ncnc2ccccc12 | > 0.0383 |
| O=C(Nc1ccncc1)c1cc(S(=O)(=O)N2CCCC2)ccc1Cl | > 0.0549 |
| Cc1ccc(NC(=O)c2ccco2)nc1 | 0.0289 (≈ 143 µM) |
| O=C(COc1ccc(Cl)cc1)NCCc1ccccn1 | 0.0372 (≈ 128 µM) |
| CC(C)(C)C(=O)N(Cc1ccccc1)c1ccccn1 | 0.0402 (≈ 150 µM) |
| COc1cc(C#N)c(N=C(SCC#N)N2CCOCC2)cc1OC | > 0.052 |
| COc1cc(OC)cc(C(=O)N[C@H](C(=O)OCC(=O)c2ccc(C)c([N+](=O)[O-])c2)C(C)C)c1 | 0.0288 (≈ 62.8 µM) |
| Cc1[nH]c2ccccc2c1C(=O)C(=O)N(C)C1CCCCC1 | > 0.0448 |
| COc1ccccc1OCCOCCN1CCCC1 | 0.0382 (≈ 144 µM) |
| Cc1cc(N2CCCC2)ccc1NC(=O)COc1ccc(Cl)cc1 | 0.0044 (≈ 12.8 µM) |
| COCC(C)NC(=O)COc1nncc2ccccc12 (configuration not stated) | > 0.0413 |
| CCN(CC)S(=O)(=O)c1ccc(-c2csc(C)n2)cc1 | 0.0373 (≈ 120 µM) |
